Results reported in patent US10960020B2, “Modulation of PCSK9 and LDLR through DRP1 inhibition” (THE BRIGHAM AND WOMEN'S HOSPITAL, INC., priority 2016, dated 2021).

Columns and labels:
Assay type in all cases: cell-based, human
[1] = test system: SREBP-1c mRNA; assay: Real time PCR, HepG2 SREBP-1c mRNA; settings: HepG2, Mdivi-1 50 μM, 24 hours
Source text: (§1) Human cells and mouse liver was homogenized with TriZolTM (Life Technologies, Grand Island, N.Y.) to isolate RNA. QuantiTectTM Reverse Transcription Kit (Qiagen, Hilden, Germany) was used for reverse transcription on total RNA. cDNA was generated using the Quanta gScriptTM cDNA Synthesis Kit (Bioscience Inc., Gaithersburg, Md.). mRNA levels were quantified on a 7900HT real-time PCR system (Thermo Fisher Scientific) using TaqManTM real-time PCR with the following probes: Hs02758991_g1 (human GAPDH); Mm99999915_g1 (mouse Gapdh); Hs00236329 m1 (human BCL2L1); Hs00247147_m1 (human DRP1); Hs00545399_m1 (human PCSK9); Mm01263610_m1 (mouse Pcsk9); Hs00168352_m1 (human HMGCR); […]); Hs00181192_m1 (human LDLR); Mm00440169_m1 (mouse Ldlr); Hs01088691_m1 (human SREBP1); Mm00550338_m1 (mouse Srebp1); Hs00231674_m1 (human SREBP1a); custom primer (human SREBP1c); Hs01081784_m1 (human SREBP2); Mm01306292_m1 (mouse Srebp2); Hs01005622_m1 (human FASN); […]); Hs00167041_m1 (human HNF1A); Mm00493434_m1 (mouse Hnf1a); Hs00171168 (human APOE); Hs01059118_m1 (human ABCA1); Hs01103582_s1 (human JUN). Mouse SREBP-1c was analyzed by SYBERTM green PCR with the following primers: [NT] All expression levels were normalized to GAPDH using the ΔΔCT method.

[2] = test system: HMGCR; assay: Western blot, HepG2 HMGCR protein; settings: HepG2, Mdivi-1 50 μM, 24 hours
[3] = test system: BECLIN1; assay: BECLIN1 mRNA and protein; settings: 24 hours
Source text: as §1, with “[…] Protein concentrations were determined by the Pierce BCA AssayTM (Thermo Fisher Scientific). […] Protein” for “All expression”, “β-ACTIN, α-TUBULIN, or LAMIN A/C with” for “GAPDH using”, “use of NIH ImageJ software for quantification.” for “ΔΔCT method.”

[4] = test system: BCL-XL; assay: BCL-XL mRNA and protein, HepG2; settings: HepG2, Mdivi-1 50 μM, 24 hours
Source text: as §1, with “[…] Protein concentrations were determined by the Pierce BCA AssayTM (Thermo Fisher Scientific). […] Protein” for “All expression”, “β-ACTIN, α-TUBULIN, or LAMIN A/C with” for “GAPDH using”, “use of NIH ImageJ software for quantification.” for “ΔΔCT method.”

## COc1cc(-n2c(S)nc3ccccc3c2=O)c(Cl)cc1Cl [Mdivi-1, 3-(2,4-Dichloro-5-methoxyphenyl)-2,3-dihydro-2-thioxo-4(1H)-quinazolinone]
[1]
  SREBP-1c mRNA: strongly reduced
[2]
  HMGCR abundance increase: not
[3]; HepG2, Mdivi-1 50 μM
  BECLIN1 protein abundance: did not alter
[3]; human hepatocytes, Mdivi-1 50 μM
  BECLIN1 mRNA: did not alter
[4]
  BCL-XL abundance (protein): increased
  BCL-XL expression (BCL2L1 mRNA): increased
